According to publication PMC3534288 (BMC Biophysics, 2012):
Where two headings read alike, the source gives them in different places.

Assays:
hCA XIII [1] = target: T1, hCA XIII (Homo sapiens, UniProt Q8N1Q1); assay: Intrinsic binding parameters by dissection of binding-linked protonation reactions; conditions: deprotonated inhibitor anion to protonated zinc-bound water form, 25°C
T1 construct: made in house; host or cells: Escherichia coli
Source text: Here we use the same formalism to dissect protonation reactions as previously described. The intrinsic binding constant is related to the observed binding constant and the fractions of active binding species:
(1) Kb=Kb_obs/fRSO2NH^−fCAZnH2O
Where the fractions deprotonated sulfonamide and protonated CA as a function of pH are:
(4) ΔbHintr=ΔbHobs−ninhΔb_proton_inhH−nCAΔb_proton_CAH+nΔb_proton_bufH
The intrinsic entropy of binding was obtained by subtracting Gibbs free energy from the enthalpy using standard thermodynamic equations. The intrinsic heat capacity of binding could be determined by carrying out all or part of ITC and TSA experiments at several temperatures.

[2] = sulfonamide group, 25°C; cited from earlier work
[3] = Protonation of inhibitor sulfonamide group (ITC titration with acid, pKa); type: physicochemical
Procedure: Dissection of contribution from inhibitor protonation requires a set of experiments with pure inhibitor in the absence of protein to determine the pKa and the enthalpy of inhibitor protonation. The deprotonation pKa could be determined by pH titration as previously explained. The enthalpy of protonation is determined by titrating alkaline solution of the inhibitor with acid. […] Pure crystalline inhibitor is in protonated electrostatically neutral form. Therefore, 1.5 equivalent of NaOH is added to the inhibitor solution to make it deprotonated. […] This enthalpy of the second transition is the enthalpy of interest.

hCA XIII [4] = target: T1, hCA XIII; assay: Isothermal titration calorimetry (ITC) of inhibitor binding to hCA XIII, observed parameters
Procedure: ITC experiments were performed using a VP-ITC instrument (Microcal, Inc., GE-Healthcare, Northampton, MA, USA). For ligand-protein binding experiments 5–20 μM (usually 10) protein solution in the cell and 50–200 μM (usually 100) ligand solution in the syringe were used. A typical experiment consisted of 25–30 injections (usually 25), 10 μL each, with 3–5 min (usually 4 min) intervals between injections. Experiments were performed at different temperatures in various buffers containing 50 mM NaCl and 0.5-2% DMSO concentration. All experiments were repeated at least twice. For the determination of ligand binding at various pHs, the solution pH was carefully checked in the presence of protein and ligand, in the cell and syringe, respectively.

CA II = conditions: pH 7.0; read-out: observed Kis and Kds; cited from earlier work

T1 sequence (Q8N1Q1 whole entry): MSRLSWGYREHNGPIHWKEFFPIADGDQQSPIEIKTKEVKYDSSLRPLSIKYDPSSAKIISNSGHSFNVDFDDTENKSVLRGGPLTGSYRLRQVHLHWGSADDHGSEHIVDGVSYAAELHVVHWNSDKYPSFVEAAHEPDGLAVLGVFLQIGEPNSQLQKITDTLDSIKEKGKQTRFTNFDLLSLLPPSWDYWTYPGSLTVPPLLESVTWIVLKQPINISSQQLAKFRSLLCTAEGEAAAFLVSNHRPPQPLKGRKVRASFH

In the case of CC(=O)Nc1nnc(S(N)(=O)=O)s1 [AZM, acetazolamide], the TΔbSintr (hCA XIII [1]) is reported as -2.13 kcal/mol, the ΔbGintr (hCA XIII [1]) is reported as -9.92 kcal/mol and the ΔbHintr (hCA XIII [1]) is reported as -12 kcal/mol. For the same compound, the ΔbSintr (hCA XIII [1]) was −29.8 J/(mol × K), the Ka [2] was 50 nM and the TΔb_protonS [2] was 4.47 kcal/mol. The pKa [2] was 7.30, the Δb_protonG [2] was -9.97 kcal/mol and the Δb_protonH [2] was -5.5 kcal/mol. The Δb_protonS [2] was 62.6 J/(mol × K).

With CCOc1ccc2nc(S(N)(=O)=O)sc2c1 [EZA, ethoxzolamide] the Δb_protonCp ([3]; slope of protonation enthalpy versus temperature) was 88.7 J/(mol × K), the Ka ([3]; sulfonamide group, 25°C) was 10 nM and the TΔb_protonS ([3]; sulfonamide group, 25°C) was 3.87 kcal/mol. For the same compound, the Δb_protonG ([3]; sulfonamide group, 25°C) was -10.9 kcal/mol, the Δb_protonH ([3]; sulfonamide group, 25°C) was -7.05 kcal/mol and the Δb_protonS ([3]; sulfonamide group, 25°C) was 54.2 J/(mol × K). The pKa [2] was 8.0.

In the case of NS(=O)(=O)C(F)(F)F [TFMSA, trifluoromethanesulfonamide], the “net number of uptaken or released protons upon binding” value (hCA XIII [4]; pH 7.0, 25°C, slope of observed enthalpy versus buffer protonation enthalpy) is reported as “approximately equal to zero”, the “observed enthalpies of binding, span over pH and buffers” value (hCA XIII [4]; sodium phosphate and TRIS chloride buffers, 25°C, as a function of pH) is reported as −10 to −70 kJ/mol and the TΔbSintr (hCA XIII [1]) is reported as 2.44 kcal/mol. For the same compound, the ΔbGintr (hCA XIII [1]) was -10.5 kcal/mol, the ΔbHintr (hCA XIII [1]) was -8.01 kcal/mol and the ΔbSintr (hCA XIII [1]) was 34.3 J/(mol × K).

For CS(N)(=O)=O [methanesulfonamide], the Kd (CA II) is given as 300 µM.
